Laboratory results as given in paper PMC12748989 (Nature Communications, 2025).

Key:
PBMC = settings: 12.5 µM

Compound | Average (percentage cell inhibition), Dmastoparan MDA-MB231 12.5uM (MDA-MB-231 cells) [%] | Average (percentage cell inhibition), Mastoparan PBMC (PBMC) [%]
CC[C@H](C)[C@H](N)C(=O)N[C@@H](CC(N)=O)C(=O)N[C@@H](CC(C)C)C(=O)N[C@@H](CCCCN)C(=O)N[C@@H](C)C(=O)N[C@@H](CC(C)C)C(=O)N[C@@H](C)C(=O)N[C@@H](C)C(=O)N[C@@H](CC(C)C)C(=O)N[C@@H](CCC(=O)O)C(=O)N[C@@H](CCCCN)C(=O)N[C@@H](CCCCN)C(=O)N[C@H](C(=O)N[C@@H](CC(C)C)C(N)=O)[C@@H](C)CC [E10] | 7.891 | -0.2344
CC[C@H](C)[C@H](N)C(=O)N[C@@H](CC(N)=O)C(=O)N[C@@H](CC(C)C)C(=O)N[C@@H](CCCCN)C(=O)N[C@@H](C)C(=O)N[C@@H](CC(C)C)C(=O)N[C@@H](C)C(=O)N[C@@H](C)C(=O)N[C@@H](CC(C)C)C(=O)N[C@@H](C)C(=O)N[C@@H](CCC(=O)O)C(=O)N[C@@H](CCCCN)C(=O)N[C@H](C(=O)N[C@@H](CC(C)C)C(N)=O)[C@@H](C)CC [E11] | 19.6815 | 5.959
CC[C@H](C)[C@H](N)C(=O)N[C@@H](CC(N)=O)C(=O)N[C@@H](CC(C)C)C(=O)N[C@@H](CCCCN)C(=O)N[C@@H](C)C(=O)N[C@@H](CC(C)C)C(=O)N[C@@H](C)C(=O)N[C@@H](C)C(=O)N[C@@H](CC(C)C)C(=O)N[C@@H](C)C(=O)N[C@@H](CCCCN)C(=O)N[C@@H](CCC(=O)O)C(=O)N[C@H](C(=O)N[C@@H](CC(C)C)C(N)=O)[C@@H](C)CC [E12] | 21.4723 | 4.97
CC[C@H](C)[C@H](N)C(=O)N[C@@H](CC(N)=O)C(=O)N[C@@H](CC(C)C)C(=O)N[C@@H](CCCCN)C(=O)N[C@@H](C)C(=O)N[C@@H](CC(C)C)C(=O)N[C@@H](C)C(=O)N[C@@H](C)C(=O)N[C@@H](CC(C)C)C(=O)N[C@@H](C)C(=O)N[C@@H](CCCCN)C(=O)N[C@@H](CCCCN)C(=O)N[C@@H](CCC(=O)O)C(=O)N[C@@H](CC(C)C)C(N)=O [E13] | 42.4043 | -2.907
CC[C@H](C)[C@H](N)C(=O)N[C@@H](CC(N)=O)C(=O)N[C@@H](CC(C)C)C(=O)N[C@@H](CCCCN)C(=O)N[C@@H](C)C(=O)N[C@@H](CC(C)C)C(=O)N[C@@H](C)C(=O)N[C@@H](C)C(=O)N[C@@H](CC(C)C)C(=O)N[C@@H](C)C(=O)N[C@@H](CCCCN)C(=O)N[C@@H](CCCCN)C(=O)N[C@H](C(=O)N[C@@H](CCC(=O)O)C(N)=O)[C@@H](C)CC [E14] | 33.8434 | 2.998
CC[C@H](C)[C@H](NC(=O)[C@H](CCCCN)NC(=O)[C@H](CCCCN)NC(=O)[C@H](C)NC(=O)[C@H](CC(C)C)NC(=O)[C@H](C)NC(=O)[C@H](C)NC(=O)[C@H](CC(C)C)NC(=O)[C@H](C)NC(=O)[C@H](CCCCN)NC(=O)[C@H](CC(C)C)NC(=O)[C@H](CC(N)=O)NC(=O)CN)C(=O)N[C@@H](CC(C)C)C(N)=O [G1] | 44.9778 | 6.436
CC[C@H](C)[C@H](N)C(=O)NCC(=O)N[C@@H](CC(C)C)C(=O)N[C@@H](CCCCN)C(=O)N[C@@H](C)C(=O)N[C@@H](CC(C)C)C(=O)N[C@@H](C)C(=O)N[C@@H](C)C(=O)N[C@@H](CC(C)C)C(=O)N[C@@H](C)C(=O)N[C@@H](CCCCN)C(=O)N[C@@H](CCCCN)C(=O)N[C@H](C(=O)N[C@@H](CC(C)C)C(N)=O)[C@@H](C)CC [G2] | 71.0378 | 15.6884
CC[C@H](C)[C@H](N)C(=O)N[C@@H](CC(N)=O)C(=O)NCC(=O)N[C@@H](CCCCN)C(=O)N[C@@H](C)C(=O)N[C@@H](CC(C)C)C(=O)N[C@@H](C)C(=O)N[C@@H](C)C(=O)N[C@@H](CC(C)C)C(=O)N[C@@H](C)C(=O)N[C@@H](CCCCN)C(=O)N[C@@H](CCCCN)C(=O)N[C@H](C(=O)N[C@@H](CC(C)C)C(N)=O)[C@@H](C)CC [G3] | 40.6724 | 8.745
CC[C@H](C)[C@H](N)C(=O)N[C@@H](CC(N)=O)C(=O)N[C@@H](CC(C)C)C(=O)NCC(=O)N[C@@H](C)C(=O)N[C@@H](CC(C)C)C(=O)N[C@@H](C)C(=O)N[C@@H](C)C(=O)N[C@@H](CC(C)C)C(=O)N[C@@H](C)C(=O)N[C@@H](CCCCN)C(=O)N[C@@H](CCCCN)C(=O)N[C@H](C(=O)N[C@@H](CC(C)C)C(N)=O)[C@@H](C)CC [G4] | 39.0682 | 15.8704
CC[C@H](C)[C@H](N)C(=O)N[C@@H](CC(N)=O)C(=O)N[C@@H](CC(C)C)C(=O)N[C@@H](CCCCN)C(=O)NCC(=O)N[C@@H](CC(C)C)C(=O)N[C@@H](C)C(=O)N[C@@H](C)C(=O)N[C@@H](CC(C)C)C(=O)N[C@@H](C)C(=O)N[C@@H](CCCCN)C(=O)N[C@@H](CCCCN)C(=O)N[C@H](C(=O)N[C@@H](CC(C)C)C(N)=O)[C@@H](C)CC [G5] | 39.6978 | 4.313
CC[C@H](C)[C@H](N)C(=O)N[C@@H](CC(N)=O)C(=O)N[C@@H](CC(C)C)C(=O)N[C@@H](CCCCN)C(=O)N[C@@H](C)C(=O)NCC(=O)N[C@@H](C)C(=O)N[C@@H](C)C(=O)N[C@@H](CC(C)C)C(=O)N[C@@H](C)C(=O)N[C@@H](CCCCN)C(=O)N[C@@H](CCCCN)C(=O)N[C@H](C(=O)N[C@@H](CC(C)C)C(N)=O)[C@@H](C)CC [G6] | 27.1038 | 3.256
CC[C@H](C)[C@H](N)C(=O)N[C@@H](CC(N)=O)C(=O)N[C@@H](CC(C)C)C(=O)N[C@@H](CCCCN)C(=O)N[C@@H](C)C(=O)N[C@@H](CC(C)C)C(=O)NCC(=O)N[C@@H](C)C(=O)N[C@@H](CC(C)C)C(=O)N[C@@H](C)C(=O)N[C@@H](CCCCN)C(=O)N[C@@H](CCCCN)C(=O)N[C@H](C(=O)N[C@@H](CC(C)C)C(N)=O)[C@@H](C)CC [G7] | 49.0864 | 11.7718
CC[C@H](C)[C@H](N)C(=O)N[C@@H](CC(N)=O)C(=O)N[C@@H](CC(C)C)C(=O)N[C@@H](CCCCN)C(=O)N[C@@H](C)C(=O)N[C@@H](CC(C)C)C(=O)N[C@@H](C)C(=O)NCC(=O)N[C@@H](CC(C)C)C(=O)N[C@@H](C)C(=O)N[C@@H](CCCCN)C(=O)N[C@@H](CCCCN)C(=O)N[C@H](C(=O)N[C@@H](CC(C)C)C(N)=O)[C@@H](C)CC [G8] | 28.4057 | 1.421
CC[C@H](C)[C@H](N)C(=O)N[C@@H](CC(N)=O)C(=O)N[C@@H](CC(C)C)C(=O)N[C@@H](CCCCN)C(=O)N[C@@H](C)C(=O)N[C@@H](CC(C)C)C(=O)N[C@@H](C)C(=O)N[C@@H](C)C(=O)NCC(=O)N[C@@H](C)C(=O)N[C@@H](CCCCN)C(=O)N[C@@H](CCCCN)C(=O)N[C@H](C(=O)N[C@@H](CC(C)C)C(N)=O)[C@@H](C)CC [G9] | 11.2187 | 7.302
CC[C@H](C)[C@H](N)C(=O)N[C@@H](CC(N)=O)C(=O)N[C@@H](CC(C)C)C(=O)N[C@@H](CCCCN)C(=O)N[C@@H](C)C(=O)N[C@@H](CC(C)C)C(=O)N[C@@H](C)C(=O)N[C@@H](C)C(=O)N[C@@H](CC(C)C)C(=O)NCC(=O)N[C@@H](CCCCN)C(=O)N[C@@H](CCCCN)C(=O)N[C@H](C(=O)N[C@@H](CC(C)C)C(N)=O)[C@@H](C)CC [G10] | 20.1107 | 11.4267
CC[C@H](C)[C@H](N)C(=O)N[C@@H](CC(N)=O)C(=O)N[C@@H](CC(C)C)C(=O)N[C@@H](CCCCN)C(=O)N[C@@H](C)C(=O)N[C@@H](CC(C)C)C(=O)N[C@@H](C)C(=O)N[C@@H](C)C(=O)N[C@@H](CC(C)C)C(=O)N[C@@H](C)C(=O)NCC(=O)N[C@@H](CCCCN)C(=O)N[C@H](C(=O)N[C@@H](CC(C)C)C(N)=O)[C@@H](C)CC [G11] | 29.778 | 15.1682
CC[C@H](C)[C@H](N)C(=O)N[C@@H](CC(N)=O)C(=O)N[C@@H](CC(C)C)C(=O)N[C@@H](CCCCN)C(=O)N[C@@H](C)C(=O)N[C@@H](CC(C)C)C(=O)N[C@@H](C)C(=O)N[C@@H](C)C(=O)N[C@@H](CC(C)C)C(=O)N[C@@H](C)C(=O)N[C@@H](CCCCN)C(=O)NCC(=O)N[C@H](C(=O)N[C@@H](CC(C)C)C(N)=O)[C@@H](C)CC [G12] | 17.8169 | 13.7945
CC[C@H](C)[C@H](N)C(=O)N[C@@H](CC(N)=O)C(=O)N[C@@H](CC(C)C)C(=O)N[C@@H](CCCCN)C(=O)N[C@@H](C)C(=O)N[C@@H](CC(C)C)C(=O)N[C@@H](C)C(=O)N[C@@H](C)C(=O)N[C@@H](CC(C)C)C(=O)N[C@@H](C)C(=O)N[C@@H](CCCCN)C(=O)N[C@@H](CCCCN)C(=O)NCC(=O)N[C@@H](CC(C)C)C(N)=O [G13] | 23.4491 | 6.832
CC[C@H](C)[C@H](N)C(=O)N[C@@H](CC(N)=O)C(=O)N[C@@H](CC(C)C)C(=O)N[C@@H](CCCCN)C(=O)N[C@@H](C)C(=O)N[C@@H](CC(C)C)C(=O)N[C@@H](C)C(=O)N[C@@H](C)C(=O)N[C@@H](CC(C)C)C(=O)N[C@@H](C)C(=O)N[C@@H](CCCCN)C(=O)N[C@@H](CCCCN)C(=O)N[C@H](C(=O)NCC(N)=O)[C@@H](C)CC [G14] | 28.3643 | 3.069
